Measurements published in patent US10766865B2, “PKM2 modulators and methods for their use” (TOLERO PHARMACEUTICALS, INC., priority 2012, dated 2020).

Target: PKM2 (Homo sapiens, UniProt P14618)
Assay: PKM2 Biochemical Assay
Conditions: for Max. Resp.: % maximum response in a biochemical assay as compared with Fructose 1,6-bisphosphate
Description: Full length, human PKM2 enzyme was obtained from Promab (Richmond, Calif.). All reagents, unless otherwise noted, were obtained from Sigma (St. Louis, Mo.).
Compounds were pre-incubated with 2 nM PKM2 in reaction buffer (50 mM Tris-HCl, pH 8.0, 200 mM KCl, 30 mM MgCl2, 2 mM DTT, 5% DMSO) for 30 min at ambient temperature. […] After 30 min, ATP formation was measured by Kinase Glo (Promega, Madison, Wis.), and AC50 values were determined using Prism (GraphPad Software, Inc., La Jolla, Calif.).

PKM2, sequence (P14618 whole entry): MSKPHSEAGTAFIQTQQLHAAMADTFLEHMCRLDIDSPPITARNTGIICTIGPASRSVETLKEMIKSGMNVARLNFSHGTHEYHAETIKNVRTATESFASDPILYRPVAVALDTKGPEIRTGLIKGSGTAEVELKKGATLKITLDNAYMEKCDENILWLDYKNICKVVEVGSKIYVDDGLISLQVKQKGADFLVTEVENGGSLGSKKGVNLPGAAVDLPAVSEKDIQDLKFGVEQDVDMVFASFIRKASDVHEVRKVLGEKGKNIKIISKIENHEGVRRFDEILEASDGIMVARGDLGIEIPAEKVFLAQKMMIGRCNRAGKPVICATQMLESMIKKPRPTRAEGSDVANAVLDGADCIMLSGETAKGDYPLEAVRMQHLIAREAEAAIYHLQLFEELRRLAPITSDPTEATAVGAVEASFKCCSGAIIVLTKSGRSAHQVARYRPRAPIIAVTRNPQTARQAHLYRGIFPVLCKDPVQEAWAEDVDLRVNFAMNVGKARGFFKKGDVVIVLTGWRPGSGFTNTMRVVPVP

SMILES | Max. Resp. | AC50
O=C(c1cc(C(F)(F)F)n[nH]1)N(CCO)Cc1ccc(O)cc1F [Example 137, N-(2-fluoro-4-hydroxybenzyl)-3-(trifluoromethyl)-N-(2-hydroxyethyl)-1H-pyrazole-5-carboxamide] | 70% | 
COCCCN(Cc1ccccc1F)C(=O)c1cc(C(F)(F)F)n[nH]1 [Example 23] | 75% | 
Nc1cccc(CN(CCN2CCS(=O)(=O)CC2)C(=O)c2cc(C(F)(F)F)n[nH]2)c1 [Example 112] | 91% | 
O=C(c1cc(C(F)(F)F)n[nH]1)N(CCN1CCS(=O)(=O)CC1)Cc1c(F)cccc1F [Example 109] | 94% | 
O=C(c1cc(Br)n[nH]1)N(Cc1ccc(O)cc1Cl)CC1CCC1 [Example 125, N-(2-chloro-4-hydroxybenzyl)-3-bromo-N-(cyclobutylmethyl)-1H-pyrazole-5-carboxamide] | 100% | 
CO[C@H]1CC[C@H](N(Cc2c(F)cccc2F)C(=O)c2cc(C(F)(F)F)n[nH]2)CC1 [Example 49] | 122% | 
O=C(c1cc(C(F)(F)F)n[nH]1)N(CCN1CCCC1)Cc1c(F)cccc1Cl [Example 177, N-(2-chloro-6-fluorobenzyl)-3-(trifluoromethyl)-N-(2-(pyrrolidin-1-yl)ethyl)-1H-pyrazole-5-carboxamide] | 100% | 
O=C(c1cc(C(F)(F)F)n[nH]1)N(CCN1CCCCCC1)Cc1c(F)cccc1F [Example 198, N-(2,6-difluorobenzyl)-N-(2-(azepan-1-yl)ethyl)-3-(trifluoromethyl)-1H-pyrazole-5-carboxamide] | 100% | 
CCN(CC)CCN(Cc1cccc(N)c1)C(=O)c1cc(C(F)(F)F)n[nH]1 [Example 154, N-(3-aminobenzyl)-N-(2-(diethylamino)ethyl)-3-(trifluoromethyl)-1H-pyrazole-5-carboxamide] | 100% | 
O=C(c1cc(Br)n[nH]1)N(Cc1ccc(O)cc1F)CC1CNC1 [Example 11, N-(azetidin-3-ylmethyl)-3-bromo-N-(2-fluoro-4-hydroxybenzyl)-1H-pyrazole-5-carboxamide] | 61% | 
CC(CN(Cc1c(N)cccc1Cl)C(=O)c1cc(C(F)(F)F)n[nH]1)N1CCCC1 (stereo not shown) [Example 221, N-(2-amino-6-chlorobenzyl)-3-(trifluoromethyl)-N-(2-(pyrrolidin-1-yl)propyl)-1H-pyrazole-5-carboxamide] | 60% | 
CCN(CC)CCN(Cc1ccc(O)cc1F)C(=O)c1cc(C(F)(F)F)n[nH]1 [Example 143, N-(2-fluoro-4-hydroxybenzyl)-N-(2-(diethylamino)ethyl)-3-(trifluoromethyl)-1H-pyrazole-5-carboxamide] | 100% | 
O=C(c1cc(C(F)(F)F)n[nH]1)N(CCN1CCCCCC1)Cc1cccc([N+](=O)[O-])c1Cl [Example 210, N-(2-chloro-3-nitrobenzyl)-N-(2-(azepan-1-yl)ethyl)-3-(trifluoromethyl)-1H-pyrazole-5-carboxamide] | 100% | 
O=C(c1cc(C(F)(F)F)n[nH]1)N(Cc1ccc(O)cc1Cl)CC1CCC1 [Example 124, N-(2-chloro-4-hydroxybenzyl)-N-(cyclobutylmethyl)-3-(trifluoromethyl)-1H-pyrazole-5-carboxamide] | 100% | 
O=C(c1cc(Cl)n[nH]1)N(CCC1CCSCC1)Cc1ccccc1F [Example 80] | 46% | 
Nc1cccc(Cl)c1CN(CCN1CC[C@H](F)C1)C(=O)c1cc(C(F)(F)F)n[nH]1 [Example 241, N-(2-amino-6-chlorobenzyl)-3-(trifluoromethyl)-N-(2-((S)-3-fluoropyrrolidin-1-yl)ethyl)-1H-pyrazole-5-carboxamide] | 100% | 
CC(CN(Cc1ccccc1Cl)C(=O)c1cc(C(F)(F)F)n[nH]1)N1CCCC1 (stereo not shown) [Example 181, N-(2-chlorobenzyl)-3-(trifluoromethyl)-N-(2-(pyrrolidin-1-yl)propyl)-1H-pyrazole-5-carboxamide] | 100% | 
COCCCN(Cc1ccccc1F)C(=O)c1cc(C(F)(F)F)n[nH]1 [Example 30] | 72% | 9.77 µM
CC(C)(O)CCN(Cc1ccc(O)cc1F)C(=O)c1cc(C(F)(F)F)n[nH]1 [Example 131, N-(2-fluoro-4-hydroxybenzyl)-3-(trifluoromethyl)-N-(3-hydroxy-3-methylbutyl)-1H-pyrazole-5-carboxamide] |  | 23 µM
O=C(c1cc(C(F)(F)F)n[nH]1)N(CCC1CCNCC1)Cc1ccccc1F [Example 98] | 56% | 
CCOCCN(Cc1ccc(O)cc1F)C(=O)c1cc(C(F)(F)F)n[nH]1 [Example 24] | 100% | 
O=C(c1cc(C(F)(F)F)n[nH]1)N(CCN1CCCC1)Cc1ccccc1Cl [Example 162, N-(2-chlorobenzyl)-3-(trifluoromethyl)-N-(2-(pyrrolidin-1-yl)ethyl)-1H-pyrazole-5-carboxamide] | 100% | 
O=C(c1cc(C(F)(F)F)n[nH]1)N(Cc1ccccc1F)C1CCCCC1 [Example 153, N-(2-fluorobenzyl)-N-cyclohexyl-3-(trifluoromethyl)-1H-pyrazole-5-carboxamide] | 57% | 

SMILES | Max. Resp. | AC50
O=C(c1cc(C(F)(F)F)n[nH]1)N(Cc1ccccc1F)c1ncco1 [Example 25] | 35% | 
O=C(c1cc(Cl)n[nH]1)N(Cc1cccc2[nH]c(=O)sc12)CC1CCC1 [Example 9, 3-Chloro-N-(cyclobutylmethyl)-N-((2-oxo-2,3-dihydrobenzo[d]thiazol-7-yl)methyl)-1H-pyrazole-5-carboxamide] | 80% | 
O=C(c1cc(C(F)(F)F)n[nH]1)N(Cc1ccncc1Cl)CC1CCC1 [Example 128, N-((3-chloropyridin-4-yl)methyl)-N-(cyclobutylmethyl)-3-(trifluoromethyl)-1H-pyrazole-5-carboxamide] | 75% | 
CC1CC(C)CN(CCN(Cc2ccccc2Cl)C(=O)c2cc(C(F)(F)F)n[nH]2)C1 (stereo not shown) [Example 188, N-(2-chlorobenzyl)-3-(trifluoromethyl)-N-(2-(3,5-dimethylpiperidin-1-yl)ethyl)-1H-pyrazole-5-carboxamide] | 60% | 
O=C(c1cc(C(F)(F)F)n[nH]1)N(CCC1CCOCC1)Cc1ccccc1Cl [Example 32] | 107% | 
N#Cc1cc(C(=O)N(Cc2ccc(O)cc2F)CC2CCC2)[nH]n1 [Example 2, 3-CYANO-N-(CYCLOBUTYLMETHYL)-N-(2-FLUORO-4-HYDROXYBENZYL)-1H-PYRAZOLE-5-CARBOXAMIDE] | 39% | 
Nc1cc(C(=O)N(Cc2ccc(O)cc2F)CC2CCC2)[nH]n1 [Example 3, 3-amino-N-(cyclobutylmethyl)-N-(2-fluoro-4-hydroxybenzyl)-1H-pyrazole-5-carboxamide] | 45% | 
O=C(c1cc(C(F)(F)F)n[nH]1)N(Cc1ccccc1Cl)CC1CCS(=O)(=O)CC1 [Example 72] | 22% | 
O=C1CCC(CCN(Cc2ccccc2F)C(=O)c2cc(C(F)(F)F)n[nH]2)CC1 [Example 60, N-(2-fluorobenzyl)-N-(2-(4-oxocyclohexyl)ethyl)-3-(trifluoromethyl)-1H-pyrazole-5-carboxamide] | 105% | 
O=C(c1cc(Br)n[nH]1)N(Cc1ccc(O)cc1F)CC1CCC1 [Example 245] | 100% | 
O=C(c1cc(C(F)(F)F)n[nH]1)N(CCC1CCOC1)Cc1c(F)cccc1F (stereo not shown) [Example 40] | 114% | 
CCCC(C)N(Cc1ccccc1)C(=O)c1cc(C(F)(F)F)n[nH]1 (stereo not shown) [Example 16] | 22% | 
O=C(c1cc(C(F)(F)F)n[nH]1)N(CCN1CCCCCC1)Cc1c(Cl)cccc1[N+](=O)[O-] [Example 211, N-(2-chloro-6-nitrobenzyl)-N-(2-(azepan-1-yl)ethyl)-3-(trifluoromethyl)-1H-pyrazole-5-carboxamide] | 100% | 
CC(C)(C)CN(Cc1cccc2[nH]ccc12)C(=O)c1cc(C(F)(F)F)n[nH]1 [Example 13] | 33% | 
Nc1ccc(CN(CC2CCC2)C(=O)c2cc(C(F)(F)F)n[nH]2)c(Cl)c1 [Example 134, N-(4-amino-2-chlorobenzyl)-N-(cyclobutylmethyl)-3-(trifluoromethyl)-1H-pyrazole-5-carboxamide] | 100% | 
Nc1ccc(F)c(CN(CCN2CCCCCC2)C(=O)c2cc(C(F)(F)F)n[nH]2)c1 [Example 214, N-(5-amino-2-fluorobenzyl)-N-(2-(azepan-1-yl)ethyl)-3-(trifluoromethyl)-1H-pyrazole-5-carboxamide] | 100% | 
O=C(c1cc(C(F)(F)F)n[nH]1)N(CCC1CC1)Cc1ccccc1F [Example 149, N-(2-fluorobenzyl)-N-(2-cyclopropylethyl)-3-(trifluoromethyl)-1H-pyrazole-5-carboxamide] | 100% | 
CN(C)CCN(Cc1ccccc1Cl)C(=O)c1cc(C(F)(F)F)n[nH]1 [Example 187, N-(2-chlorobenzyl)-N-(2-(dimethylamino)ethyl)-3-(trifluoromethyl)-1H-pyrazole-5-carboxamide] | 100% | 
O=C(c1cc(C(F)(F)F)n[nH]1)N(CCC1CC1)Cc1ccc(O)cc1F [Example 140, N-(2-fluoro-4-hydroxybenzyl)-N-(2-cyclopropylethyl)-3-(trifluoromethyl)-1H-pyrazole-5-carboxamide] | 100% | 
CCN1CCC(N(Cc2ccccc2F)C(=O)c2cc(C(F)(F)F)n[nH]2)C1 (stereo not shown) [Example 152, N-(2-fluorobenzyl)-N-(1-ethylpyrrolidin-3-yl)-3-(trifluoromethyl)-1H-pyrazole-5-carboxamide] | 68% | 
O=C(c1cc(C(F)(F)F)n[nH]1)N(CCC1CCC2(CC1)OCCO2)Cc1ccccc1F [Example 59, N-(2-(1,4-dioxaspiro[4.5]decan-8-yl)ethyl)-N-(2-fluorobenzyl)-3-(trifluoromethyl)-1H-pyrazole-5-carboxamide] | 100% | 
O=C(c1cc(C(F)(F)F)n[nH]1)N(CCN1CCCCC1)Cc1c(F)cccc1Cl [Example 179, N-(2-chloro-6-fluorobenzyl)-3-(trifluoromethyl)-N-(2-(piperidin-1-yl)ethyl)-1H-pyrazole-5-carboxamide] | 100% | 
